# Results published in PubChem BioAssay AID743334 (Broad Institute, 2014).
# Active and inactive are the calls of the source.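 Rule for the calls: active = curve reaches 40% rise within the top valid dose, in every run; inconclusive = runs give conflicting calls; inactive = opposite-direction activity, or every run inactive.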
# Test: statin-free myotube ATP level counter-assay – cell-based, no simvastatin, luminescence, dry powder, counter-screen for statin myotoxicity suppressor project, dose response (AID 743334)
# Conditions: C2C12 myotubes ATP, CellTiter-Glo luminescence, 48 h; for max activity: stronger effect = higher value
SMILES,max activity,other results
N#C[C@@H]1[C@@H](c2ccc(C3=CCCCC3)cc2)[C@H](CO)N1C(=O)NC1CCCC1,-9.58% (inactive),–
Cc1noc(C)c1S(=O)(=O)Nc1ccc2c(c1)CC(=O)N([C@H](C)CO)C[C@@H](C)[C@@H](CN(C)Cc1ccc(-c3ccccc3)cc1)O2,–,"ATP level change, positive = increase (at 21 µM (top of the series)): 10.4% (inactive)"
N#C[C@@H]1[C@@H](c2ccccc2)[C@H](CO)N1S(=O)(=O)c1ccc(-c2ccccc2)cc1,-5.62% (inactive),–
C[C@H]1CN([C@@H](C)CO)S(=O)(=O)c2ccc(C#CC3CC3)cc2O[C@H]1CN(C)C(=O)Nc1cc(F)ccc1F,-12.1% (inactive),–
N#C[C@@H]1[C@H](c2ccc(-c3cccc(F)c3)cc2)[C@H](CO)N1C(=O)NC1CCCC1,-18.6% (inactive),–
CCCNC(=O)N1[C@@H](C#N)[C@@H](c2ccc(-c3ccccc3F)cc2)[C@@H]1CO,6.49% (inactive),–
C[C@@H]1CN([C@H](C)CO)C(=O)Cc2cc(NS(=O)(=O)c3ccc(Cl)cc3)ccc2O[C@H]1CN(C)Cc1ccccc1,–,"ATP level change, positive = increase (at 19.5 µM (top of the series)): 13% (inactive)"
C[C@H](CO)N1C[C@H](C)[C@H](CN(C)Cc2ccc3c(c2)OCO3)Oc2ccc(NC(=O)CCCCCC(=O)Nc3ccccc3N)cc2CC1=O,–,"ATP level change, positive = increase (at 18 µM (top of the series)): 12% (inactive)"
N#C[C@@H]1[C@@H](c2ccc(-c3cccc(F)c3)cc2)[C@H](CO)N1C(=O)c1cccnc1,6.17% (inactive),–
C[C@H]1CN([C@@H](C)CO)C(=O)Cc2cc(NC(=O)CCCCCC(=O)Nc3ccccc3N)ccc2O[C@H]1CN(C)CC1CCCCC1,11.1% (inactive),–
N#C[C@H]1[C@H](c2ccc(-c3cccc(F)c3)cc2)[C@@H](CO)N1C(=O)NC1CCCC1,1.15% (inactive),–
C[C@@H]1CN([C@H](C)CO)C(=O)Cc2cc(NS(=O)(=O)c3cn(C)cn3)ccc2O[C@@H]1CN(C)Cc1ccc(Cl)c(Cl)c1,–,"ATP level change, positive = increase (at 19.5 µM (top of the series)): 9.79% (inactive)"
C[C@H]1CN([C@@H](C)CO)C(=O)Cc2cc(NC(=O)CCCCCC(=O)Nc3ccccc3N)ccc2O[C@@H]1CN(C)Cc1ccc(Oc2ccccc2)cc1,-15.5% (inactive),–
C[C@H]1CN([C@@H](C)CO)C(=O)Cc2cc(NS(=O)(=O)c3ccc(Cl)cc3)ccc2O[C@@H]1CN(C)CC1CCCCC1,4.91% (inactive),–
CC(C)CC#Cc1cnc2c(c1)C(=O)N([C@H](C)CO)C[C@H](C)[C@@H](CN(C)C(=O)Cc1ccccc1)O2,–,"ATP level change, positive = increase (at 21 µM (top of the series)): 6.23% (inactive)"
N#C[C@H]1[C@H](c2ccc(-c3cccc(F)c3)cc2)[C@H](CO)N1C(=O)NC1CCCC1,-7.45% (inactive),–
C[C@@H]1CN([C@@H](C)CO)C(=O)c2cc(NC(=O)Cc3cn(C)c4ccccc34)ccc2O[C@@H]1CN(C)Cc1ccc(C(=O)Nc2ccccc2N)cc1,14.1% (inactive),–
C[C@H]1CN([C@@H](C)CO)C(=O)Cc2cc(NC(=O)CCCCCC(=O)Nc3ccccc3N)ccc2O[C@H]1CN(C)Cc1ccc(C(F)(F)F)cc1,–,"ATP level change, positive = increase (at 21 µM (top of the series)): 5.44% (inactive)"
COCC(=O)N1[C@H](C#N)[C@@H](c2ccc(-c3cccc(F)c3)cc2)[C@@H]1CO,6.18% (inactive),–
CN1C(=O)c2cc(NC(=O)c3ccc(F)c(F)c3)ccc2OC[C@H]2O[C@@H](CC(=O)Nc3ccc4c(c3)COC4)CC[C@@H]21,12.6% (inactive),–
N#C[C@@H]1[C@@H](c2ccc(-c3ccc(F)cc3)cc2)[C@H](CO)N1C(=O)Cc1ccccc1,–,"ATP level change, positive = increase (at 19.5 µM (top of the series)): 2.91% (inactive)"

SMILES,max activity,other results
C[C@H]1CN([C@@H](C)CO)C(=O)Cc2cc(NC(=O)CCCCCC(=O)Nc3ccccc3N)ccc2O[C@H]1CN(C)Cc1ccc(Oc2ccccc2)cc1,-10.2% (inactive),–
CN(C)C(=O)c1cccc(-c2ccc([C@@H]3[C@@H](C#N)N(C(=O)C4CCCC4)[C@@H]3CO)cc2)c1,-5.88% (inactive),–
C[C@@H]1CN([C@H](C)CO)C(=O)c2cc(NC(=O)Nc3cccc4ccccc34)ccc2O[C@@H]1CN(C)Cc1ccc(C(=O)Nc2ccccc2N)cc1,13.3% (inactive),–
N#C[C@@H]1[C@@H](c2ccccc2-c2cccc(F)c2)[C@H](CO)N1C(=O)NC1CCCC1,11.6% (inactive),–
C[C@H](CO)N1C[C@H](C)[C@H](CN(C)Cc2ccc(Oc3ccccc3)cc2)Oc2ccc(NC(=O)CCCCCC(=O)Nc3ccccc3N)cc2CC1=O,-48.9% (inactive),–
N#C[C@H]1[C@@H](c2ccc(-c3cccc(F)c3)cc2)[C@H](CO)N1C(=O)NC1CCCC1,9.12% (inactive),–
Cc1ccc(S(=O)(=O)N(C)C[C@@H]2Oc3ccc(NS(=O)(=O)c4ccc(Cl)cc4)cc3C(=O)N([C@H](C)CO)C[C@@H]2C)cc1,–,"ATP level change, positive = increase (at 19.5 µM (top of the series)): -0.772% (inactive)"
COc1ccc(C#Cc2cnc3c(c2)C(=O)N([C@H](C)CO)C[C@H](C)[C@H](CN(C)Cc2ccccc2)O3)cc1OC,15.6% (inactive),–
N#C[C@H]1[C@H](c2ccc(C#Cc3ccc(F)cc3)cc2)[C@H](CO)N1c1nc(-c2ccccc2)cs1,9.97% (inactive),–
C[C@@H]1CN([C@@H](C)CO)C(=O)c2cc(NS(=O)(=O)c3ccc(Cl)cc3)ccc2O[C@H]1CN(C)C(=O)Nc1cccc2ccccc12,–,"ATP level change, positive = increase (at 19.5 µM (top of the series)): 6.56% (inactive)"
COc1ccc(C#Cc2cnc3c(c2)C(=O)N([C@H](C)CO)C[C@H](C)[C@@H](CN(C)C(=O)Nc2cccc(OC)c2)O3)cc1,8% (inactive),–
COc1ccc(S(=O)(=O)Nc2cccc3c2O[C@H](CN(C)C(=O)Nc2ccc(F)cc2)[C@H](C)CN([C@@H](C)CO)C3=O)cc1,–,"ATP level change, positive = increase (at 19.5 µM (top of the series)): 14.4% (inactive)"
C[C@@H]1CN([C@H](C)CO)C(=O)Cc2cc(NC(=O)CCCCCC(=O)Nc3ccccc3N)ccc2O[C@@H]1CN(C)Cc1ccc(Oc2ccccc2)cc1,-23.3% (inactive),–
C[C@H]1CN([C@@H](C)CO)C(=O)Cc2cc(NC(=O)Nc3cccc4ccccc34)ccc2O[C@H]1CN(C)Cc1ccc(C(=O)Nc2ccccc2N)cc1,10.8% (inactive),–
O=C(C[C@H]1CC[C@@H]2[C@H](COC[C@@H](O)CN2Cc2ccc(Oc3ccccc3)cc2)O1)N1CCCCC1,14% (inactive),–
CC(C)=CCC/C(C)=C/CC/C(C)=C/CC/C(C)=C/CO,1.13% (inactive),–
C[C@@H]1CN([C@H](C)CO)C(=O)Cc2cc(NC(=O)CCCCCC(=O)Nc3ccccc3N)ccc2O[C@H]1CN(C)Cc1ccc(Oc2ccccc2)cc1,-0.786% (inactive),–
C[C@H](CO)N1C[C@H](C)[C@H](CN(C)Cc2ccc(C(=O)Nc3ccccc3N)cc2)Oc2ccc(NC(=O)Cc3cn(C)c4ccccc34)cc2C1=O,12.2% (inactive),–
C[C@@H]1CN([C@H](C)CO)C(=O)c2cc(NC(=O)Cc3cn(C)c4ccccc34)ccc2O[C@H]1CN(C)Cc1ccc(C(=O)Nc2ccccc2N)cc1,9.28% (inactive),–
CCCC#Cc1ccc([C@H]2[C@@H](C#N)N(S(=O)(=O)c3cccc(F)c3)[C@H]2CO)cc1,3.4% (inactive),–
COc1ccc(S(=O)(=O)N(C)C[C@H]2Oc3c(NC(=O)Nc4ccccc4)cccc3C(=O)N([C@H](C)CO)C[C@H]2C)cc1,–,"ATP level change, positive = increase (at 19.5 µM (top of the series)): 7.7% (inactive)"

SMILES,max activity,other results
C[C@H]1CN([C@@H](C)CO)S(=O)(=O)c2ccc(C#Cc3ccc(F)cc3)cc2O[C@@H]1CN(C)S(=O)(=O)c1cn(C)cn1,–,"ATP level change, positive = increase (at 19.5 µM (top of the series)): 6.04% (inactive)"
N#C[C@@H]1[C@@H](c2ccc(C#Cc3cccnc3)cc2)[C@@H](CO)N1C(=O)C1CCCC1,-10.7% (inactive),–
C/C=C/c1ccc([C@H]2[C@@H](CO)N(C(=O)NC3CCCC3)[C@H]2C#N)cc1,-3.18% (inactive),–
C[C@H](CO)N1C[C@H](C)[C@@H](CN(C)Cc2ccc(Oc3ccccc3)cc2)Oc2c(NC(=O)Nc3cccc4ccccc34)cccc2C1=O,–,"ATP level change, positive = increase (at 19.5 µM (top of the series)): 8.68% (inactive)"
N#C[C@@H]1[C@@H](c2ccc(-c3cccc(F)c3)cc2)[C@@H](CO)N1C(=O)NC1CCCC1,2.16% (inactive),–
C[C@H](CO)N1C[C@H](C)[C@H](CN(C)Cc2ccc(C(=O)Nc3ccccc3N)cc2)Oc2ccc(N(C)C)cc2C1=O,-24.5% (inactive),–
C[C@@H]1CN([C@H](C)CO)C(=O)c2cc(NC(=O)Cc3cn(C)c4ccccc34)ccc2O[C@@H]1CN(C)Cc1ccc(C(=O)Nc2ccccc2N)cc1,-0.539% (inactive),–
C[C@@H]1CN([C@@H](C)CO)C(=O)c2cccc(NC(=O)Nc3ccc4c(c3)OCO4)c2O[C@H]1CN(C)Cc1ccc(C(=O)Nc2ccccc2N)cc1,–,"ATP level change, positive = increase (at 19.5 µM (top of the series)): 16.4% (inactive)"
N#C[C@@H]1[C@@H](c2ccccc2-c2ccc(F)cc2)[C@H](CO)N1C(=O)NC1CCCC1,-6.02% (inactive),–
C[C@H](CO)N1C[C@H](C)[C@H](CN(C)Cc2ccc(C(=O)Nc3ccccc3N)cc2)Oc2ccc(NC(=O)Nc3ccc(F)cc3)cc2CC1=O,-33.9% (inactive),–
C[C@@H]1CN([C@@H](C)CO)C(=O)c2cc(NC(=O)Cc3cn(C)c4ccccc34)ccc2O[C@H]1CN(C)Cc1ccc(C(=O)Nc2ccccc2N)cc1,-0.192% (inactive),–
C[C@@H]1CN([C@H](C)CO)C(=O)c2cccc(NC(=O)c3nc4ccccc4s3)c2O[C@@H]1CN(C)Cc1ccc(C(=O)Nc2ccccc2N)cc1,-20.8% (inactive),–
C[C@H](CO)N1C[C@H](C)[C@H](CN(C)Cc2ccc(C(=O)Nc3ccccc3N)cc2)Oc2ccc(NC(=O)Nc3cccc4ccccc34)cc2CC1=O,-21.1% (inactive),–
C[C@H](CO)N1C[C@H](C)[C@H](CN(C)Cc2ccc(C(=O)Nc3ccccc3N)cc2)Oc2ccc(NC(=O)Nc3cccc4ccccc34)cc2C1=O,-0.211% (inactive),–
CCCNC(=O)N1[C@H](CO)[C@H](c2ccccc2)[C@@H]1C#N,-8.33% (inactive),–
N#C[C@H]1[C@H](c2ccc(C#CCC3CCCC3)cc2)[C@@H](CO)N1C(=O)CN1CCOCC1,-19% (inactive),–
N#C[C@H]1N[C@@H](CO)[C@@H]1c1ccc(-c2cccc(F)c2)cc1,7.67% (inactive),–
C[C@@H]1CN([C@H](C)CO)C(=O)c2cccc(NC(=O)Nc3ccc4c(c3)OCO4)c2O[C@H]1CN(C)Cc1ccc(C(=O)Nc2ccccc2N)cc1,-9.22% (inactive),–
N#C[C@@H]1[C@H](c2ccc(-c3cccc(F)c3)cc2)[C@@H](CO)N1C(=O)NC1CCCC1,-0.345% (inactive),–
